Experimental findings from publication PMC5740082, “Identification of a CARM1 Inhibitor with Potent In Vitro and In Vivo Activity in Preclinical Models of Multiple Myeloma” (Scientific Reports, 2017) are described below.

Read-outs that look alike come from different tables or passages of the source.

Series [1] concerns PABP1 and SmB methylation in U266B1 cells. Description: Western blot of cellular methyl marks, U266B1. Particulars: 96 h.
Protocol: Methylation changes were measured at the well-characterized CARM1 substrates PABP1 and SmB[1],[10]. Changes in overall levels of asymmetric dimethyl arginine (aDMA) were assessed with an antibody that detects a generic aDMA motif. Levels of methylated analytes were quantified by densitometry and ratios of methylated to total protein were calculated to determine the cell biochemical IC50 values.
Cultured cells in linear/log phase growth were split to a seeding density of 2e5 cells/mL in 2–20mLs of media, depending on the yield required at the end of the growth period. Compound was diluted in DMSO and added to each culture vessel with a final DMSO concentration of 0.2%. Cells were allowed to grow for 96 hours. At the conclusion of each treatment period, cells were harvested by centrifugation (5 minutes, 1200 rpm), and cell pellets were rinsed once with PBS before being frozen on dry ice pending further processing.
Quantification of Western blots was performed using infra-red emitting secondary antibodies and detection with an ODYSSEY infrared imaging system.
Another series in a line: Hepatocyte stability. The class given is in vitro ADME. Conditions: 1 µM. How it is done: Hepatocyte stability, plasma protein binding and cytochrome P450 assays were performed using standard procedures. Details can be found in Supplementary Methods. […]
where K I and K J are th e inhibition constants for I and J , respectivel y, and alpha is a constant describing the effect of one inhibitor on the binding of another inhibitor 8.
Reversibility experiments were performed in assay buffer lacking bovine skin gelatin. CARM1 […]
mixture was purified using pre-equilibrated 0.5 mL Zeba (7MWCO) spin columns (Thermo Fisher) following manufacturer ’s instructions. CARM1 was diluted to 0.5 nM in an assay reaction mixture using previously described conditions and activity was measured over 2 hours.
Proteins were kept at 4 °C for further activit y testing. Similar results were also obtained when […]
Methyltransf erase cros s screening panel […]
gen eral p rocedu res f rom Knutson et al.9
In cell w estern assay f or detection of asymmetric di -methyl PABP1 an d DNA content RKO cells (ATCC) were maintained in growth medium (DMEM/Glutamax medium supplemented with 10% v/v heat inactivated fetal bovine serum and 100 units/mL penicillin-streptom ycin) and cultured at 37 °C under 5% CO2. Cells were seeded in assay medium at a concentration of 30,000 cells per m L to a pol y -D-l ys ine coated 384 well culture plate with 50 µ L per well. […]

On to `CNC[C@@H](O)COc1ccc(Cl)c(-c2nc(-c3c(C)noc3C)c(C)c(N3CC4(CCN(C(=O)OC)CC4)C3)n2)c1` [EZM2302], for which the IC50 (as a rule, the midpoint of a concentration-inhibition curve) in series [1] (read-out: IC50, PABP1me2a) stood at 22 nM; in series [1] (read-out: IC50, SmBme0) it was 20 nM. The “CL in human hepatocytes (scaled)” value in “Hepatocyte stability” is given as below 3 mL/min/kg.
